Results as given in ChEMBL document CHEMBL1201862, “PubChem BioAssay data set” (2004).
Active and inactive are the calls of the source.

How the values were obtained:
Protein RecA = biological target: T1, Protein RecA (Mycobacterium tuberculosis, UniProt P9WHJ3); assay: Fluorescence Cell-Free Homogeneous Dose Retest to Identify Inhibitors of RecA-Intein Splicing Activity. [Related pubchem assays (depositor defined):AID2097, AID2223, AID489010, AID492950]; format: functional
T1 sequence (P9WHJ3 whole entry): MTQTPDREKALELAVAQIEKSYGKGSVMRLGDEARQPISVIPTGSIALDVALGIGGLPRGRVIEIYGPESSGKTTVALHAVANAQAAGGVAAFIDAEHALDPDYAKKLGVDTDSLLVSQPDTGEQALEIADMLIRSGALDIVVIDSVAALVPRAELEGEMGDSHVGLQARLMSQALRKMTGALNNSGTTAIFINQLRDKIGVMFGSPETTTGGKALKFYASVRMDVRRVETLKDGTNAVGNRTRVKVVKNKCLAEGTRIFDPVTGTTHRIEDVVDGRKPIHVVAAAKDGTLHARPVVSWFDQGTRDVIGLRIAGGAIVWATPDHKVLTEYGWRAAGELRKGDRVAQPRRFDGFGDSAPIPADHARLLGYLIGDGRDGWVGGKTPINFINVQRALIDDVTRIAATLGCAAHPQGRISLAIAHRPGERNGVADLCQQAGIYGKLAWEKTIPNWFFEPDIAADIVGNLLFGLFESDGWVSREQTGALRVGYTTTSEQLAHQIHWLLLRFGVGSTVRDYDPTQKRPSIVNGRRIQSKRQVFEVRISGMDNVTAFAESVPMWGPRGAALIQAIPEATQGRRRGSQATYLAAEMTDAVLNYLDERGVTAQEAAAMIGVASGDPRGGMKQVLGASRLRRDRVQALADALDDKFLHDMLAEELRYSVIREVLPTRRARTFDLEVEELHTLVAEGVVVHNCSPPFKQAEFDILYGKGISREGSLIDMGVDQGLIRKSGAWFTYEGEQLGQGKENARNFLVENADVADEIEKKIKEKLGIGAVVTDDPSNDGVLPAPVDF

[1] = biological target: T2, Tyrosyl-DNA phosphodiesterase 2 (Homo sapiens, UniProt O95551); assay: human TDP2 enzyme inhibitors, dose response, biochemical, epi absorbance, IC50 (AID 743297)
T2 sequence (O95551 whole entry): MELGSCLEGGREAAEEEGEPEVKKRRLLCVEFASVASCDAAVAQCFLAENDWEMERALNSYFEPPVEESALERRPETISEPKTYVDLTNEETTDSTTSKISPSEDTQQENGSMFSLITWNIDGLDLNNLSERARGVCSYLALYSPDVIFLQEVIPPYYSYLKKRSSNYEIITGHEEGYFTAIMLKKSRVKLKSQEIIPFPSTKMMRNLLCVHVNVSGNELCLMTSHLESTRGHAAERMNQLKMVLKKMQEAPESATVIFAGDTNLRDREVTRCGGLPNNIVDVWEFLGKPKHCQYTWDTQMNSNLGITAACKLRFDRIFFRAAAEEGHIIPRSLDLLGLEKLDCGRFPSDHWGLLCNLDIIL

[2] = biological target: T3, Zinc finger protein mex-5 (Caenorhabditis elegans, UniProt Q9XUB2); assay: MEX-5/TCR-2 RNA interaction inhibitors, dose response, biochemical, C. elegans, fluorescence polarization (AID 1960)
T3 sequence (Q9XUB2 whole entry): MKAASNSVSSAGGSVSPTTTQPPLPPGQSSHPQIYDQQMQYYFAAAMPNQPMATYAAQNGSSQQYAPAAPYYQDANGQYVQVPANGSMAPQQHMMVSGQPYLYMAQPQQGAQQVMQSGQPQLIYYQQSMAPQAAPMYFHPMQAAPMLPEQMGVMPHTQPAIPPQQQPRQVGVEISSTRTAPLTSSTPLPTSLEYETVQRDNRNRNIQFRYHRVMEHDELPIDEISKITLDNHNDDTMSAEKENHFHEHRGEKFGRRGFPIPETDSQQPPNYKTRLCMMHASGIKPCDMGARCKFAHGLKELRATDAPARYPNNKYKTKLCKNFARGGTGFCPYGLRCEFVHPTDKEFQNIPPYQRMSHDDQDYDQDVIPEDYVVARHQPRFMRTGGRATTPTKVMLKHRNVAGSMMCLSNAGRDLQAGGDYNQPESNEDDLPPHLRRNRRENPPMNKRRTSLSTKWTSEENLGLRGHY

[3] = biological target: T4, RNA-binding protein pos-1 (Caenorhabditis elegans, UniProt G5EF15); assay: inhibitors of POS-1/mex-3 RNA binding, dose response, biochemical, fluorescence polarization (AID 1964);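 further: purified POS-1 fused to maltose binding protein made in E. coli; potency of compounds blocking POS-1 binding to fluorescent RNA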
T4 sequence (G5EF15 whole entry): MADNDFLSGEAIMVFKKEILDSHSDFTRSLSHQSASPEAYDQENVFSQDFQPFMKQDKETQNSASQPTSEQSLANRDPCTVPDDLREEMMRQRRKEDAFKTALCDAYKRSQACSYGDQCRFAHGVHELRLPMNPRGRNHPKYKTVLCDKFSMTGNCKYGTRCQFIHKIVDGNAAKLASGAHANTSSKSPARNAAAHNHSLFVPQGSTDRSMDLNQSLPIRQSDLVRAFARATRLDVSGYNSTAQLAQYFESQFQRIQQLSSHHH

[4] = biological target: T5, Histone-lysine N-methyltransferase NSD2 (Homo sapiens, UniProt O96028); format: biochemical
T5 sequence (O96028 whole entry): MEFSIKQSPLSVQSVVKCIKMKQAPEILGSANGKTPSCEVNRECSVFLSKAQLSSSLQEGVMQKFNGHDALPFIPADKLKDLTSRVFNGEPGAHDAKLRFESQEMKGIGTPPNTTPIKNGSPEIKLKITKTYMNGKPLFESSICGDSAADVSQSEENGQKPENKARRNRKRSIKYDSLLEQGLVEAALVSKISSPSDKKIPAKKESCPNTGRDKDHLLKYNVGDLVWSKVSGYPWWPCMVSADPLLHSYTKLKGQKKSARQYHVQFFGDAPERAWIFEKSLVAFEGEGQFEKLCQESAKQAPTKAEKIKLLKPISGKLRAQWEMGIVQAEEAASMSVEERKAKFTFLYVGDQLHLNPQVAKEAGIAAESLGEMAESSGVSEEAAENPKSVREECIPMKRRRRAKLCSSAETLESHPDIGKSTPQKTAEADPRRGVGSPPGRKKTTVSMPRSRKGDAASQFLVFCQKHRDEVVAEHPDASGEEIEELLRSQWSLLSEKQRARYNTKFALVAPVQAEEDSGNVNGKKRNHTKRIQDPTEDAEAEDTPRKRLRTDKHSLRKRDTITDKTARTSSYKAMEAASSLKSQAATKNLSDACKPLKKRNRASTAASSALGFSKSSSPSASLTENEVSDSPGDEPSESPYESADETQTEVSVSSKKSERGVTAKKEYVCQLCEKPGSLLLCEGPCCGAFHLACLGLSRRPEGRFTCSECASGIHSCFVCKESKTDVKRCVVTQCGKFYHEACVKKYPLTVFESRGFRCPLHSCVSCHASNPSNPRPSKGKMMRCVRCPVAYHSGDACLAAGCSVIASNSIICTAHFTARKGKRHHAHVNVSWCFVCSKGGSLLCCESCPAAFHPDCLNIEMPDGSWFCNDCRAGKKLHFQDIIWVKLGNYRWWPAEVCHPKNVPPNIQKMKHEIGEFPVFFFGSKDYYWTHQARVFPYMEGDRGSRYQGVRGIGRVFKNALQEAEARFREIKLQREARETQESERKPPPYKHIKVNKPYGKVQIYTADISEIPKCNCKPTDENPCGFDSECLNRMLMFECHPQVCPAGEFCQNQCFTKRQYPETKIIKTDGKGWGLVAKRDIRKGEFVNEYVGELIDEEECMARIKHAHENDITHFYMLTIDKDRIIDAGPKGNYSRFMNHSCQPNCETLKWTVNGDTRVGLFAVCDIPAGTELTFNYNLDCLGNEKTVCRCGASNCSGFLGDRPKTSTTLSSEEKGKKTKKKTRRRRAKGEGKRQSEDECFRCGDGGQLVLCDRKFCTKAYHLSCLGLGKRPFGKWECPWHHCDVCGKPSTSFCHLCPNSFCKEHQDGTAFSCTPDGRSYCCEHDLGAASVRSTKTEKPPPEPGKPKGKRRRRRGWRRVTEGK

[5] = biological target: Potassium channel subfamily K member 9 (Homo sapiens, UniProt Q9NPC2); assay: TASK3 (KCNK9) channel inhibitors, thallium flux, SAR follow-up, selectivity assay for TASK1 inhibitor project, cell-based, FluxOR thallium flux, concentration-response (AID 652211); format: functional;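 further: potency is for inhibitors of the channel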
[6] = HepG2 cell cytotoxicity, dose response, cytotoxicity control, plate reader, cherry-pick, antagonist series (AID 743416); format: functional, cell-based
[7] = A549 cell cytotoxicity, dose response, cytotoxicity control, plate reader, cherry-pick, antagonist series (AID 743412); format: functional, cell-based
[8] = HEK293 cell cytotoxicity, dose response, cytotoxicity control, plate reader, cherry-picked samples (AID 743446); format: functional, cell-based
[9] = MC4R antagonists, dose response, counter-screen for LGR2 antagonist project, cell-based, plate reader, cherry pick (AID 743444); format: functional;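 further: transfected HEK 293 cells stimulated with alpha-MSH peptide; potency of inhibitors of the alpha-MSH evoked signal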
[10] = biological target: T6, COUP transcription factor 2 (Homo sapiens, UniProt P24468); assay: Luminescence-based cell-based high throughput dose response assay to identify inhibitors of COUP-TFII (NR2F2).; format: functional;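 further: HEK293 cells transiently cotransfected with COUP-TFII expression vector and reporter; luciferase reporter luminescence driven by COUP-TFII from the pX2-168 reporter plasmid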
T6 sequence (P24468 whole entry): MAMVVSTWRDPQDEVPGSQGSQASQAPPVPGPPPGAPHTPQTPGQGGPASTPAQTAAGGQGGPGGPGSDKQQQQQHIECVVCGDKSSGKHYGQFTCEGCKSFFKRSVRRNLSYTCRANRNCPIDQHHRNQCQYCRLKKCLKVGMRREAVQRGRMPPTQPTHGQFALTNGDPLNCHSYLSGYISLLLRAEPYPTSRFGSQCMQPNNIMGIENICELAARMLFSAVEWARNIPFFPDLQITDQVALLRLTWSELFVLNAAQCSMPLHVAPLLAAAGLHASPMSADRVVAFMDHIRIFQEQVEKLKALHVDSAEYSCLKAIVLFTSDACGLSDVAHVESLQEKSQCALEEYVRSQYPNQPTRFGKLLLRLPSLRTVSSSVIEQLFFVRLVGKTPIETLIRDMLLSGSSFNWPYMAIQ

[11] = LGR2 antagonists, dose response, cell-based, HEK293, CRE-luciferase reporter, cherry pick, set 2 (AID 743343); format: functional;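 further: transfected cells were stimulated with diluted bursicon conditioned medium after compound addition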
Nonstructural protein 1 = Nonstructural protein 1 (Influenza A virus, UniProt Q194T2); format: functional, Influenza A virus (A/California/07/2009(H1N1))
cells = format: functional, cell-based; conditions: HEK-CNG
[12] = inhibitors of SNCA 5'UTR-driven reporter translation, confirmation, H4 neuroglioma cells, luminescence (AID 1988); format: functional, cell-based
[13] = Luminescence Cell-Based Dose Response HTS to Identify Inhibitors of 5'UTR Stem-Loop Driven Prion Protein mRNA Translation in H4 Neuroglioblastoma Cells. [Related pubchem assays: 1827 (Project Summary), 1813 (Primary HTS)]; format: functional
[14] = C. albicans growth with fluconazole, confirmation, fluorescence, retest (AID 2467); format: functional, cell-based
Galanin receptor type 3 = biological target: T7, Galanin receptor type 3 (Homo sapiens, UniProt O60755); assay: Fluorescence-based cell-based primary high throughput dose response assay to identify antagonists of the Galanin Receptor 3 (GalR3).; format: functional
T7 sequence (O60755 whole entry): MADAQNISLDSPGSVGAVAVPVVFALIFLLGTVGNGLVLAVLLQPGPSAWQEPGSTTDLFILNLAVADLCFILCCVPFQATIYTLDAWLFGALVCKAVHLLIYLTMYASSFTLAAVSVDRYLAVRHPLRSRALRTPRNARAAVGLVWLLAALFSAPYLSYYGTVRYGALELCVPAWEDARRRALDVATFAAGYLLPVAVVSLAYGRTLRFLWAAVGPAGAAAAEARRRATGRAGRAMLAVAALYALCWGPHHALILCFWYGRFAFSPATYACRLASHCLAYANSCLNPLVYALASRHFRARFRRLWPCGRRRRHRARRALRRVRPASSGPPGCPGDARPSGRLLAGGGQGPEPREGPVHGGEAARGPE

[15] = NIH-3T3 fibroblast cytotoxicity, dose response, cytotoxicity control, cell-based, fluorescence, Alamar Blue, secondary assay (AID 2327); format: functional;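 further: NIH-3T3 mouse fibroblasts cultured with fluconazole at 8 µg/mL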
[16] = inhibitors of firefly luciferase expression or activity, dose response, H4 neuroglioma cells, luminescence (AID 1990); format: functional, cell-based

Potassium channel subfamily K member 9, sequence (Q9NPC2 whole entry): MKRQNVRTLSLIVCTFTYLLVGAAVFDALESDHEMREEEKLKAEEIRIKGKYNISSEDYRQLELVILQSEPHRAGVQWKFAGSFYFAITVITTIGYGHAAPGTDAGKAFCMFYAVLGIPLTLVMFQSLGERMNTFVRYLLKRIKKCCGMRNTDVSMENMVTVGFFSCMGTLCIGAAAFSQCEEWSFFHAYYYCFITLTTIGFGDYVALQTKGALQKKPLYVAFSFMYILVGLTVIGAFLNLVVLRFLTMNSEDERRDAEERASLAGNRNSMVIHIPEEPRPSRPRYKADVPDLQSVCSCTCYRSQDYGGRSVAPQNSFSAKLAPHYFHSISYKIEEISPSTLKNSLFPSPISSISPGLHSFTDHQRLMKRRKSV
Nonstructural protein 1, sequence (Q194T2 whole entry): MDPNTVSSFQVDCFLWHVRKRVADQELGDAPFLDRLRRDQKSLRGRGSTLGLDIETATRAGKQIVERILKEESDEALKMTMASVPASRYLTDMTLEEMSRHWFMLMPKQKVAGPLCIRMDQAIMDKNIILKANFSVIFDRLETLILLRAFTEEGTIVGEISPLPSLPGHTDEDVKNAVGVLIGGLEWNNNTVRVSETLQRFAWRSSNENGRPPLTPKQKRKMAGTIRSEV

S=C(Nc1ccc2nsnc2c1)N1CCCCCC1
EC50 (Protein RecA): 46.7 µM (active) | IC50 [1]: > 128 µM (inactive)

CCCC1Nc2ccc(C(=O)O)cc2C2C=CCC12 (configuration not stated)
EC50 [2]: 14.5 µM (active) | EC50 [3]: 23.8 µM (active) | AC50 [4]: 16.8 µM (active)

O=C(Nc1cccc(NC(=O)c2ccccc2Cl)c1)c1ccccc1
IC50 [5]: 33.4 µM (active)

C[C@@H]1CN([C@H](C)CO)C(=O)Cc2cc(NC(=O)Nc3ccc(F)cc3)ccc2O[C@@H]1CN(C)CC1CCCCC1
AC50 [6]: 14.6 µM (active) | AC50 [7]: 15 µM (active) | AC50 [8]: 16.2 µM (active) | AC50 [9]: 56.6 µM (active)

Cc1c(C)n(Cc2ccccc2)c2ncnc(Cl)c12
IC50 [10]: 10.7 µM (inactive)

N#C[C@H]1[C@H](c2ccc(C#Cc3ccccc3F)cc2)[C@H](CO)N1C(=O)C1CCCC1
AC50 [6]: 34.5 µM (active) | AC50 [7]: 23.6 µM (active) | AC50 [8]: 8.77 µM (active) | AC50 [11]: 5.64 µM (active) | AC50 [9]: 4.57 µM (active)

Cc1cccc(C(=O)Nc2cccc(NC(=O)c3ccccc3C)c2)c1
IC50 [5]: 0.94 µM (active)

CC[n+]1c(/C=C/C=C/c2ccc(N(C)C)cc2)sc2ccccc21.[O-][Cl+3]([O-])([O-])[O-]
IC50 (Nonstructural protein 1): 5.05 µM (active) | EC50 (cells): > 29.9 µM (inactive) | EC50 [12]: 666 nM (active) | EC50 [13]: 11.2 µM (active) | EC50 [14]: < 30 nM (active) | IC50 (Galanin receptor type 3): > 29.9 µM (inactive) | EC50 [15]: 82.9 µM (active) | EC50 [16]: 43.6 µM (active) | AC50 [4]: 7.84 µM (active)

CCOc1ccccc1NC(=O)CSc1nc(O)c2c(C(F)(F)F)cc(-c3cccs3)nc2n1
AC50 [4]: > 20 µM (inactive)
